The text below walks through data of US7550459B2, “Tetrahydroquinoline analogues as muscarinic agonists” (Acadia Pharmaceuticals, Inc., priority 2001, dated 2009).

Molecules are shown by their SMILES.

The target in one data set is T1, M1 muscarinic receptor (Homo sapiens, UniProt P11229).
T1 construct: expressed in transfected cells
T1 sequence (P11229 1-460): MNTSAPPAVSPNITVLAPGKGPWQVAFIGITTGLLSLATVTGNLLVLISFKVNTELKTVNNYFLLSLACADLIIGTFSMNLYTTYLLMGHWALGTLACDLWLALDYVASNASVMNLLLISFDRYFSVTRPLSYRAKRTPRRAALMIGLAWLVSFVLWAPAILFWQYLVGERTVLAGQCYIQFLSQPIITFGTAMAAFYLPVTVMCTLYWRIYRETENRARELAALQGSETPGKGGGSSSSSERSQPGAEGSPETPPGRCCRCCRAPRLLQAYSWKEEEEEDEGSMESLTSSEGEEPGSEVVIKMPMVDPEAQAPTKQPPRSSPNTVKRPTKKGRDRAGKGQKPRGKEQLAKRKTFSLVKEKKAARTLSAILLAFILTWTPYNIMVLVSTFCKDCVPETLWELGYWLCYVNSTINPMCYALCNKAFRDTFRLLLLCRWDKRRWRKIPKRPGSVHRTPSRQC
As to the kind of experiment: Receptor Selection and Amplification (R-SAT) assay, cloned M1 receptor. It is filed as cell-based. The settings on record: R-SAT, cloned m1 receptor. An outline of the steps: (§1)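 Receptor Selection and Amplification functional assay: mammalian cells transfected with the cloned human muscarinic subtype proliferate in response to ligand, read out via a co-expressed marker. Agonist EC50 is the concentration for 50% of maximal response; for inverse agonists, 50% inhibition of basal response.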

A further data set addresses T2, M2 muscarinic receptor (Homo sapiens, UniProt P08172).
T2 construct: expressed in transfected cells
T2 sequence (P08172 1-466): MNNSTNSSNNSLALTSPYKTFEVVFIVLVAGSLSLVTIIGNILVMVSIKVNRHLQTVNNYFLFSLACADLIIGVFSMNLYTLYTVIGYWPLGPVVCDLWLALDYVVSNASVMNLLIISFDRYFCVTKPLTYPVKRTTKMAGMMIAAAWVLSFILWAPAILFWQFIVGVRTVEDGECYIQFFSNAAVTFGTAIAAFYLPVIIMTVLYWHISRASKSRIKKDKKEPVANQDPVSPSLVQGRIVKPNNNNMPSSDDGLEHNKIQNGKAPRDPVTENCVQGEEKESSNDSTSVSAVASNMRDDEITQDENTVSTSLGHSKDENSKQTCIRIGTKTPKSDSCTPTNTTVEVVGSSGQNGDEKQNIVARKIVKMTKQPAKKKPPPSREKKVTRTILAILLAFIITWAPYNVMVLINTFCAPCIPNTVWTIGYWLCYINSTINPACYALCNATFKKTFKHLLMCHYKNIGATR
As to the kind of experiment: Receptor Selection and Amplification (R-SAT) assay, cloned M2 receptor. It is filed as cell-based. The settings on record: R-SAT, cloned m2 receptor. The procedure, abridged:
as §1

Another data set addresses T3, M4 muscarinic receptor (Homo sapiens, UniProt P08173).
T3 construct: expressed in transfected cells
T3 sequence (P08173 1-479): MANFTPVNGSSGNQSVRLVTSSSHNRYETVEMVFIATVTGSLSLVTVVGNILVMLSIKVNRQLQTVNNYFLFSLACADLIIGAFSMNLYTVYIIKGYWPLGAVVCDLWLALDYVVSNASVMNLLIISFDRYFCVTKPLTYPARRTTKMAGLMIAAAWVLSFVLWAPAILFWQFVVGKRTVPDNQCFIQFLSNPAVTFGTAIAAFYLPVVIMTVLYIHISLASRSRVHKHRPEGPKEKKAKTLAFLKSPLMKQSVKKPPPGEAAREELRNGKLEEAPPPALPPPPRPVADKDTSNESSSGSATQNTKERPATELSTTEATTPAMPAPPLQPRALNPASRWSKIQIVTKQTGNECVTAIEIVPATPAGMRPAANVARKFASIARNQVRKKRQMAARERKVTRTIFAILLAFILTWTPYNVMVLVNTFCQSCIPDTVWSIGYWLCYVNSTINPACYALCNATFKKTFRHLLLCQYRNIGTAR
As to the kind of experiment: Receptor Selection and Amplification (R-SAT) assay, cloned M4 receptor. It counts as cell-based. The following applies: R-SAT, cloned m4 receptor. An excerpt:
(§2) The EC50 for an agonist is intended to denote the concentration of a compound needed to achieve 50% of a maximal response seen in an in vitro assay such as R-SAT. For inverse agonists, EC50 is intended to denote the concentration of a compound needed to achieve 50% inhibition of an R-SAT response from basal, no compound, levels.
(§3) A particularly convenient functional assay system is the receptor selection and amplification assay (R-SAT assay) in U.S. Pat. No. 5,707,798, which describes a method of screening for bioactive compounds by utilizing the ability of cells transfected with receptor DNA, e.g., coding for the different muscarinic subtypes, to amplify in the presence of a ligand of the receptor. Cell amplification is detected as increased levels of a marker also expressed by the cells.
(§4) Receptor Selection and Amplification (R-SAT) assays were carried out using the cloned M1-M5 receptors essentially as described in: Brauner-Osborne H, Brann M R. Pharmacology of muscarinic acetylcholine receptor subtypes (m1-m5): high throughput assays in mammalian cells. Eur J Pharmacol Jan. 4, 1996;295(1):93-102, and Spalding T A, Trotter C, Skjaerbaek N, Messier T L, Currier E A, Burstein E S, Li D, Hacksell U, Brann M R. Discovery of an ectopic activation site on the M(1) muscarinic receptor. Mol Pharmacol. 2002 June;61(6):1297-302.

A further data set concerns the target T4, M5 muscarinic receptor (Homo sapiens, UniProt P08912).
T4 construct: expressed in transfected cells
T4 sequence (P08912 1-532): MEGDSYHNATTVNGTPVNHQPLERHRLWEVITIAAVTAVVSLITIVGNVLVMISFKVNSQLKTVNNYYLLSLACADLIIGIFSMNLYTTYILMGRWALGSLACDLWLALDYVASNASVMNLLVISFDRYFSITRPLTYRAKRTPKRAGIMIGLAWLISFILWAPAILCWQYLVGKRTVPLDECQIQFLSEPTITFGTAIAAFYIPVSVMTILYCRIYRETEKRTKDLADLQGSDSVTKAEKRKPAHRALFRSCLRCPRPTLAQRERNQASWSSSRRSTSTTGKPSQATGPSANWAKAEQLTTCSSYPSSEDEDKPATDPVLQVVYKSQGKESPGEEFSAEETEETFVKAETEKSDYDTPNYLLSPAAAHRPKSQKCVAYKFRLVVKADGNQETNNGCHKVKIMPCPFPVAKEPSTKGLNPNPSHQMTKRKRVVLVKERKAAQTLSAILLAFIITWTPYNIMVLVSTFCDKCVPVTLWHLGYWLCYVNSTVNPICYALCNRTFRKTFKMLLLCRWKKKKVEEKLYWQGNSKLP
As to the kind of experiment: Receptor Selection and Amplification (R-SAT) assay, cloned M5 receptor. It counts as cell-based.
From the text: as §2, §3, §4

The conditions of data set [1]: some AChE inhibitors, such as tacrine; cited from earlier work.

As for `CCCCC1CCN(CCCN2C(=O)COc3ccc(C)cc32)CC1` [Compound 64LHY89-6, 4-[3-(4-Butyl-piperidin-1-yl)-propyl]-6-methyl-4H-benzo[1,4]oxazin-3-one], the Emax on M1 muscarinic receptor (read-out: m1 % Efficacy) worked out at 80%; on M2 muscarinic receptor (read-out: m2 % Efficacy), 35%; on M4 muscarinic receptor (read-out: m4 % Efficacy), 50%; on M5 muscarinic receptor (read-out: m5 % Efficacy) it was 48%. Moreover, the EC50 was 39.8 nM at M1 muscarinic receptor (read-out: m1 pEC50 (converted)), 631 nM at M2 muscarinic receptor (read-out: m2 pEC50 (converted)), 316 nM on M4 muscarinic receptor (read-out: m4 pEC50 (converted)) and 631 nM on M5 muscarinic receptor (read-out: m5 pEC50 (converted)).

As for `Nc1c2c(nc3ccccc13)CCCC2` [tacrine], the “patients with elevated liver transaminases (significant hepatotoxicity)” value in data set [1] is listed as “about 30%”.
